Experimental data reported in publication PMC5471521, “Novel selective β1-adrenoceptor antagonists for concomitant cardiovascular and respiratory disease” (The FASEB Journal, 2017).

Experiments:
[1] = molecular target: T1, native β2-AR in human bronchial smooth muscle cells (Homo sapiens, UniProt P07550); assay: Antagonism of cimaterol-induced 3H-cAMP accumulation in human bronchial smooth muscle cells; type: cell-based; details: cimaterol agonist, mean ± SEM
T1 construct: human bronchial smooth muscle cells (that natively express β2-AR); host or cells: human bronchial smooth muscle cells
T1 sequence (P07550 whole entry): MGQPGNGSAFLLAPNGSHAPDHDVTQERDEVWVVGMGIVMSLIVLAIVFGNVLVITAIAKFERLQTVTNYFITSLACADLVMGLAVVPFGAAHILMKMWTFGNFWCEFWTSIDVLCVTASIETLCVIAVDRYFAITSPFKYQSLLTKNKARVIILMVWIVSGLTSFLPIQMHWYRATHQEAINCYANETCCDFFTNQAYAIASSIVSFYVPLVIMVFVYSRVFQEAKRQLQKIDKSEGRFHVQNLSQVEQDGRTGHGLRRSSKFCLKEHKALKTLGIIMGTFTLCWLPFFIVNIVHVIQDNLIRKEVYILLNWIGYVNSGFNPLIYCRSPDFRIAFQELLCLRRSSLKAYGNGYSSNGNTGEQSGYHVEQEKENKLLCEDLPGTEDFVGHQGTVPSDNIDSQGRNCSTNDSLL
Experimental: Human bronchial smooth muscle cells were obtained from Lonza (Basel, Switzerland) and grown in manufacturer media. Rat β-AR binding experiments (DNA from cDNA Resource Centre, Bloomsburg, PA, USA) were conducted by using transiently transfected CHO cells ([44]). […] Antagonist Kd values were calculated from a rightward shift of the agonist concentration response curve by using the Gaddum equation as previously described ([46]).

[2] = Protein binding by ultracentrifugation, human liver microsomes; type: in vitro ADME; details: pH 7.4, 0.4 mg/ml protein, read-out: fu human liver microsomes
Experimental: Protein binding of 1 µM NDD-713.HCl and -825.HCl in human and rat plasma, as well as human liver microsomes, was assessed by using the ultracentrifugation technique. Frozen human plasma (Australian Red Cross Blood Service, Melbourne, VIC, Australia) and rat plasma (male Sprague-Dawley rats; Charles River, Margate, Kent, United Kingdom) were thawed at 37°C. Human liver microsomes (XenoTech) were suspended in 0.1 M phosphate buffer (pH 7.4) at protein concentrations of 0.4 mg/ml. Samples were collected immediately as stability reference controls. Spiked plasma samples (but not microsome samples) were incubated at 37°C for 1 h. […] NDD-713.HCl and -825.HCl concentrations of noncentrifuged matrix and protein-free supernatant were determined by UPLC-MS relative to calibration standards prepared in the respective matrices. Total concentration (Ctotal) was the average measured concentration in […] samples maintained at 37°C, and unbound concentration (Cunbound) was the average measured concentration in protein-free supernatants from centrifuged samples (n = 3). The compound unbound fraction (fu) was calculated: fu = Cunbound/Ctotal. Compound degradation was assessed by comparing concentrations in noncentrifuged plasma samples that were incubated at 37°C with concentrations measured in the t = 0 noncentrifuged samples. […]

CYP2C19 = molecular target: T2, CYP2C19 (Homo sapiens, UniProt P33261); assay: P450 inhibition in human liver microsomes; type: in vitro ADME; details: 0.25–20 μM, hydrochloride salts used
T2 construct: in human liver microsomes; tissue batch 0910251; host or cells: human liver microsomes
T2 sequence (P33261 whole entry): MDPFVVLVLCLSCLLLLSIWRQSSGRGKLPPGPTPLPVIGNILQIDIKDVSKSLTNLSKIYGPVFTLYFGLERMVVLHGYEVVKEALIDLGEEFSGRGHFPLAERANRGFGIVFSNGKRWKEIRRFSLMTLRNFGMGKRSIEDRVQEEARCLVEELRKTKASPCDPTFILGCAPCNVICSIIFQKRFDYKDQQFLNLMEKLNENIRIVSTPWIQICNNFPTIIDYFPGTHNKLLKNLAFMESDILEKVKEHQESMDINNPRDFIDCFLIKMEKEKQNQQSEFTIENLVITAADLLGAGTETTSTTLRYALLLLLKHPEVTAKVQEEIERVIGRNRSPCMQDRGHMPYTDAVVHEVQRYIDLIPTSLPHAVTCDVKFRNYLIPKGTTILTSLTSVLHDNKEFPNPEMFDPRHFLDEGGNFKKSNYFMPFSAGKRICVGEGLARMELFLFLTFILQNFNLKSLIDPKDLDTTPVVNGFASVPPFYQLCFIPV
Experimental: (§1) Concentrations of NDD-713.HCl and -825.HCl (0.25–20 μM) were incubated in triplicate (37°C for 4–40 min) with substrates specific for individual P450 isoforms (see Supplemental Data for full details) in human liver microsomes (batch 34689 for CYP1A2 and CYP3A4; batch 0910251 for CYP2C9, CYP2C19, and CYP2D6) at protein concentrations of 0.4 mg/ml (CYP1A2, CYP2C9, CYP2D6 and CYP3A4/5) or 1.0 mg/ml (CYP2C19) and a total organic solvent concentration <1%. Reaction was initiated by addition of NADPH-regenerating system and samples were quenched by addition of ice-cold acetonitrile, which contained 0.15 μg/ml diazepam as an internal standard, before determination of the concentration of specific metabolites by LC-MS. Compound IC50 values (and positive control) for each P450 isoform was assessed according to %reduction in formation of the specific metabolite (maximal metabolite formation occurring in the absence of inhibitor). […] Control samples were included to confirm that the LC-MS assay was not affected by test compounds (and potential metabolites). Studies were carried out by CDCO.

CYP2C9 = molecular target: T3, CYP2C9 (Homo sapiens, UniProt P11712); assay: P450 inhibition in human liver microsomes; type: in vitro ADME; details: 0.25–20 μM, hydrochloride salts used
T3 construct: in human liver microsomes; tissue batch 0910251; host or cells: human liver microsomes
T3 sequence (P11712 whole entry): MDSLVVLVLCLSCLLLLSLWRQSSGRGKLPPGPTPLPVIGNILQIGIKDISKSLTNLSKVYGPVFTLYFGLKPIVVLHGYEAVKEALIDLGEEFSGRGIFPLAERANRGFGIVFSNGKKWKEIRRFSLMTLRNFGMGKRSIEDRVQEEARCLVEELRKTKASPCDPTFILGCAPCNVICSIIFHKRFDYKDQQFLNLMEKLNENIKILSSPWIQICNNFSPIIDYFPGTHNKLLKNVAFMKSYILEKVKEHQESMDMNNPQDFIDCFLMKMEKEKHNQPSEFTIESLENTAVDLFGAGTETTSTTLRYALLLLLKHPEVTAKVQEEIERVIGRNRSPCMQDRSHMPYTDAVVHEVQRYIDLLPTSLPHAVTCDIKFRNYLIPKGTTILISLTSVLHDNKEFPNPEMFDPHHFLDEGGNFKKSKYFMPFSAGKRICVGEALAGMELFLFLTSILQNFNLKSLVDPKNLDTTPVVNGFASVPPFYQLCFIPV
Experimental: as §1

CYP1A2 = molecular target: T4, CYP1A2 (Homo sapiens, UniProt P05177); assay: P450 inhibition in human liver microsomes; type: in vitro ADME; details: 0.25–20 μM, hydrochloride salts used
T4 construct: in human liver microsomes (batch 34689 for CYP1A2 and CYP3A4; batch 0910251 for CYP2C9, CYP2C19, and CYP2D6); tissue batch 34689; host or cells: human liver microsomes
T4 sequence (P05177 whole entry): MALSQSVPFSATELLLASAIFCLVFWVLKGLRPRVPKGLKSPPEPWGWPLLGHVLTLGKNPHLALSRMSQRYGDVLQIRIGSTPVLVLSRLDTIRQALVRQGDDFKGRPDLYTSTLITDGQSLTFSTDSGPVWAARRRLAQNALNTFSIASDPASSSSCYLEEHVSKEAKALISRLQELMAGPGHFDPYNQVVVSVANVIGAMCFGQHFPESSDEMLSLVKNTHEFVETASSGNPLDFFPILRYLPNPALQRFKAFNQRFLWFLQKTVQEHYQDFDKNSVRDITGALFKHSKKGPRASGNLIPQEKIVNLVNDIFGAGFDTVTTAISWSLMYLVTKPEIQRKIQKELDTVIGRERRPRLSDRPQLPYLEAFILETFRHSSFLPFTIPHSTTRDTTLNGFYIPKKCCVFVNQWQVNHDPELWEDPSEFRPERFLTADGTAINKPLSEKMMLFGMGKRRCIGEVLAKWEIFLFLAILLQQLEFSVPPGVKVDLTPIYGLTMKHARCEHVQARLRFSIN
Experimental: as §1

CYP3A4/5 = assay: P450 inhibition in human liver microsomes; type: in vitro ADME; details: 0.25–20 μM, hydrochloride salts used
Experimental: as §1

5-HT2A = 5-HT2A (Homo sapiens, UniProt P28223); assay: Cerep receptor radioligand-binding assay; details: for Ki: concentration-response, Cheng-Prusoff
Chain of 5-HT2A (P28223 whole entry): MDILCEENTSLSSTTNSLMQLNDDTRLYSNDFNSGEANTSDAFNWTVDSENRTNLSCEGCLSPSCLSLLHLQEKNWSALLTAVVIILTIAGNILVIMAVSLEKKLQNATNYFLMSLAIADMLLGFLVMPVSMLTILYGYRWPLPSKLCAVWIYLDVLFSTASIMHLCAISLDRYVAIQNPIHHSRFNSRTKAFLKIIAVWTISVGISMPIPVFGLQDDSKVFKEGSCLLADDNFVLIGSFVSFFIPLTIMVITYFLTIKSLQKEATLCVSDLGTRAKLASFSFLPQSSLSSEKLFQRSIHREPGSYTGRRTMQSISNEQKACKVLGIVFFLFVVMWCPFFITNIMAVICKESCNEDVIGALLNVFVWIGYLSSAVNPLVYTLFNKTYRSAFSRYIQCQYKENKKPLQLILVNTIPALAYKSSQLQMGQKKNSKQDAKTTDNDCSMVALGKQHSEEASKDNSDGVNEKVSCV
Experimental: (§2) […]; Ki (inhibition constant) was calculated by using the Cheng-Prusoff equation from the mean of duplicate determinations in cell-based receptor radioligand-binding assays. Cerep in vitro pharmacology profiling service was used (see the Supplemental Data for a list of the assays used).

human albumin = human albumin (Homo sapiens, UniProt P02768); assay: Plasma protein binding estimated from retention on human albumin columns; type: in vitro ADME; details: human albumin chromatography column, chromatographic estimate, read-out: Plasma protein binding PPB (converted)
Chain of human albumin (P02768 25-609): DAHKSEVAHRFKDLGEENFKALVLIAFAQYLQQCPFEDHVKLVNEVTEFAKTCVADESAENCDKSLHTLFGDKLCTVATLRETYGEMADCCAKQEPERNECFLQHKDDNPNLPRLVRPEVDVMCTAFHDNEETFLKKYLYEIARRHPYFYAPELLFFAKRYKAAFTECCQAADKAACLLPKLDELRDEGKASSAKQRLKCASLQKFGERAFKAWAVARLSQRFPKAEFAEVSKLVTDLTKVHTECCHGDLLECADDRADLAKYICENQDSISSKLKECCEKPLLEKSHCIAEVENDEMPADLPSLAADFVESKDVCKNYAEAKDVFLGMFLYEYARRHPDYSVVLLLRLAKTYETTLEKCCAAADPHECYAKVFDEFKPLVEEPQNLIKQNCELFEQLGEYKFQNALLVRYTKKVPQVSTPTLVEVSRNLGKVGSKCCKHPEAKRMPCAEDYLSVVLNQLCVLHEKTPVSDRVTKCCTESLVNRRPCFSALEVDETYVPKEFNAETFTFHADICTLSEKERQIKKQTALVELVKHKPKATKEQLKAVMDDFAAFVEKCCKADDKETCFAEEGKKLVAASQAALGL

dopamine transporter = dopamine transporter (Homo sapiens, UniProt Q01959); assay: Cerep radioligand-binding assay
Chain of dopamine transporter (Q01959 whole entry): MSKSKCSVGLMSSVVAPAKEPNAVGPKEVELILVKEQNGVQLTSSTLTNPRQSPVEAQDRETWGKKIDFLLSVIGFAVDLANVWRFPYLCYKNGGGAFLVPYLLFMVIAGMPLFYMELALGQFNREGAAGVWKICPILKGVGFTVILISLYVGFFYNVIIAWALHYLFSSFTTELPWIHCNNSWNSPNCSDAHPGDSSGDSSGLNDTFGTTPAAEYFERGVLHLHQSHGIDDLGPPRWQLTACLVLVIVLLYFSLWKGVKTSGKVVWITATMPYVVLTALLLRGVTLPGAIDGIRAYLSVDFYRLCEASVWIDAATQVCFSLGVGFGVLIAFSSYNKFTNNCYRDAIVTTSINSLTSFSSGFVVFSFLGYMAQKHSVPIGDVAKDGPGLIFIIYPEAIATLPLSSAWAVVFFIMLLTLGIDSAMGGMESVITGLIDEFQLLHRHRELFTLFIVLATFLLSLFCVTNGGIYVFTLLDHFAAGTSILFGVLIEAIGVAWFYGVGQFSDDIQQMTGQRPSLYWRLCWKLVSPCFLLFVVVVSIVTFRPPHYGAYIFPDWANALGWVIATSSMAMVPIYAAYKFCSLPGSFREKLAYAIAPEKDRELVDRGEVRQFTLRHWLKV
Experimental: as §2

[3] = molecular target: noradrenaline transporter (Homo sapiens, UniProt P23975); assay: Cerep radioligand-binding assay
Chain of noradrenaline transporter (P23975 whole entry): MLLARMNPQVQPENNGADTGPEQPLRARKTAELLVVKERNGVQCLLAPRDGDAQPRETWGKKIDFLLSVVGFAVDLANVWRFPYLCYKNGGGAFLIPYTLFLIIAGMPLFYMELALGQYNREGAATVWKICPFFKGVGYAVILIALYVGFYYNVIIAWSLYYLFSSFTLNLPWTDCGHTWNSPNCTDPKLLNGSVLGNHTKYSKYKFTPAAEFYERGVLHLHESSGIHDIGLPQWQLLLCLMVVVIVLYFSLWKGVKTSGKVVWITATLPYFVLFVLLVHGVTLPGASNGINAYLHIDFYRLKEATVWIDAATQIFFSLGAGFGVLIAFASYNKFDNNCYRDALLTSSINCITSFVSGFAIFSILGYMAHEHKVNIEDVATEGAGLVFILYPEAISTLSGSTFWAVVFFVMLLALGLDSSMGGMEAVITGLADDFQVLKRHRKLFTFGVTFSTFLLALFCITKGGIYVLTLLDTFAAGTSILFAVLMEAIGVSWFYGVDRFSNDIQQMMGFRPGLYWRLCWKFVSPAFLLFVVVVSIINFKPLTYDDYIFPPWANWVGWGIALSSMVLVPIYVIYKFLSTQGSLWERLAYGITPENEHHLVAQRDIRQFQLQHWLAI
Experimental: as §2

[4] = Seven-day oral dose range rat toxicity study; type: in vivo
Experimental: Male Crl:CD rats (9 wk old, weighing 316.8–349.4 g on d 1; Charles River) were administered 1 oral dose of NDD-825.HCl in water that contained 0.5% (w/v) hydroxypropylmethylcellulose K15M, 0.5% (v/v) benzyl alcohol, and 0.4% (v/v) Tween-80 at 20, 90, or 300 mg/kg at a dose volume of 10 ml/kg for 7 consecutive days (4 animals per group). Blood samples were collected before and at time points during the 24 h that followed for bioanalysis. Animals were monitored for adverse clinical signs and body weight. Terminal blood samples were taken for clinical chemistry, and organs were harvested for microscopic examination (see Supplemental Data for full details). Three additional male rats per group received NDD-825.HCl on d 1 only to collect blood samples for plasma bioanalysis of compound toxicokinetics. NDD-825 was quantifiable in plasma of all animals up to 8 h after dose administration; […]. Systemic exposure to NDD-825 in terms of Cmax increased in approximate proportion with increasing dose, whereas for the same dose increase, AUC0-t increased in a supraproportional manner across the entire dose range. […]. […] Study was carried out by Aptuit (Verona, Italy).

[5] = concentration-response, Cheng-Prusoff

NC(=O)c1ccc(OCCNC[C@H](O)COc2ccc3c(c2)OC[C@@H](COCC2CC2)O3)cc1 [NDD-713]
Kd [1]: 3.39 µM | fraction unbound at 4.2 h, 1 µM [2]: 0.67 | IC50 (CYP2C19): > 20 µM | IC50 (CYP2C9): > 20 µM | IC50 (CYP1A2): > 20 µM | IC50 (CYP3A4/5): > 20 µM | β1-selectivity over the 5-HT2A receptor (5-HT2A): 510 fold | Ki (5-HT2A): 7.7 µM | fraction unbound (human albumin): 0.365 | β1-AR vs. dopamine transporter selectivity (dopamine transporter): 53 fold | Ki (dopamine transporter; [5]): 0.8 µM | β1-AR vs. noradrenaline transporter selectivity [3]: 185 fold | Ki [3, 5]: 2.8 µM

O=C1NCc2cc(OCCNC[C@H](O)COc3ccc4c(c3)OC[C@@H](COCC3CC3)O4)ccc21 [NDD-825]
Kd [1]: 1.35 µM | fraction unbound at 4.2 h, 1 µM [2]: 0.63 | Tolerability ([4]; 300 mg/kg once daily p.o. for 7 d (highest dose tested)): well tolerated | Change in triglycerides ([4]; 7-d repeat oral dosing, top dose): dose-related increase in triglycerides | MTD at 7 d ([4]; male, Crl:CD, in vivo, 7-d repeat oral dosing, read-out: Maximum tolerated dose): > 300 mg/kg/day | Tmax ([4]; male, Crl:CD, plasma, oral 20, 90 or 300 mg/kg, read-out: tmax (toxicokinetics)): 2 to 8 h | Increase of AUC0-t for a 15-fold increase in dose ([4]; oral, 20 to 300 mg/kg/d): 31.4 fold | Increase of Cmax for a 15-fold increase in dose ([4]; oral, 20 to 300 mg/kg/d): 12.4 fold | IC50 (CYP2C19): > 20 µM | IC50 (CYP2C9): > 20 µM | IC50 (CYP1A2): > 20 µM | IC50 (CYP3A4/5): > 20 µM | β1-selectivity over the 5-HT2A receptor (5-HT2A): 1115 fold | Ki (5-HT2A): 5.8 µM | fraction unbound (human albumin): 0.265
